Experimental data: US20200270309A1, “MALEIMIDE GROUP-MODIFIED ANGIOGENESIS INHIBITOR HM-1 AND USE THEREOF” (NANJING ANJI BIOLOGICAL TECHNOLOGY CO., LTD, priority 2017, published 2020)
Marks after values point to notes of the source that are not given here. Each block holds one compound with its values, some of them ahead of it. Peptide text beside a SMILES is read from it. * marks the point of attachment. X66 = O=C1C=CC(=O)N1c1cccc(CCCCCCCC(=O)*)c1; X75 = O=C1C=CC(=O)N1c1cccc(CC(=O)*)c1

Key:
[1] = Half-lives and pharmacokinetic parameters of polypeptides vs HM-1; conditions: in vivo; for half-life: T1/2β (half-life)
[2] = test system: HUVECs; assay: Transwell migration inhibition on HUVECs; assay type: cell-based, human; conditions: for Inhibition rate (%): HUVEC migration vs blank control; for Cell migration number (Mean ± SD): HUVECs, transwell, 24 h
[3] = test system: xylene-induced ear swelling; assay: Xylene-induced mouse ear swelling; assay type: in vivo; conditions: Kunming mice, injected once a day for 5 days; for Inhibition rate (%): xylene-induced ear swelling
Procedure, shortened: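 Kunming mice dosed by injection once daily for 5 days; 1 h after last dose, 0.05 mL xylene applied to right ear, left ear untreated. Mice killed 2 h later; punched ear pieces weighed. Swelling degree = right minus left ear weight; swelling rate = swelling degree/left ear weight ×100%.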

[4] = test system: collagen-induced arthritis; assay: Mouse collagen-induced arthritis (CIA) animal model; assay type: in vivo; conditions: DBA/1 mice CIA model, dose 4.0 mg/kg, subcutaneous from day 30, n=10; for Clinical score: highest score 16
[5] = test system: carrageenan-induced toe swelling; assay: Carrageenan-induced toe swelling in rats; assay type: in vivo; conditions: SD rats; for Swelling degree 1 h: 1 h after carrageenan; for Swelling degree 3 h: 3 h after carrageenan; for Swelling degree 5 h: 5 h after carrageenan; for Swelling degree 7 h: 7 h after carrageenan
Procedure, shortened: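 Rats dosed by injection once daily for 3 d, controls given equal-volume saline. Right hind paw volume measured by water displacement to a marked joint line; swelling degree (mL) is paw volume after carrageenan inflammation minus volume before.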

[6] = test system: human retinal capillary endothelial cells (HRCECs); assay: MTT proliferation inhibition on HRCECs; assay type: cell-based; conditions: 48 h; for A570 nm-A630 nm: mean±SD
Procedure, shortened: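 HRCECs seeded at 3.0×10^4 cells/mL, adhered overnight, then exposed to polypeptide for 48 h at 37 °C, 5% CO2. MTT added 4 h, formazan dissolved in DMSO, absorbance 570/630 nm; PIR (%) = 1 − treated/negative control, mean±SD of three independent runs.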

[7] = test system: corneal neovascularization; assay: Corneal neovascularization induced by alkali burn in BALB/c mice; assay type: in vivo; parameters: Inhibition rate (corneal neovascularization): concentration or dose not given beside the values; conditions: day 14 after alkali burn, vitreous injection once a day for 1 week
[8] = test system: choroidal neovascularization; assay: Choroidal neovascularization in rats (laser photocoagulation, FFA); assay type: in vivo; conditions: BN rats
Procedure, shortened: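 Male BN rats aged 6-8 weeks were given 8 krypton-laser spots around the optic disc (647.1 nm, 350 mW, 50 μm, 0.05 s). Once the model was confirmed, groups of 5 got daily intravitreal compound at 0.05 μM or saline for 1 week. FFA followed at 3, 7, 14 and 28 days after dosing.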

[9] = dose 4 mg/kg, right minus left ear piece weight 2 h after xylene
[10] = dose 8 mg/kg, right minus left ear piece weight 2 h after xylene
[11] = day 3 after administration, total light spot number was 297, 0.05 μM in the vitreous chamber once a day for 1 week
[12] = day 7 after administration, total light spot number was 186, 0.05 μM in the vitreous chamber once a day for 1 week
[13] = day 14 after administration, total light spot number was 137, 0.05 μM in the vitreous chamber once a day for 1 week
[14] = day 28 after administration, total light spot number was 69, 0.05 μM in the vitreous chamber once a day for 1 week

SMILES: C[C@H](NC(=O)CNC(=O)[C@H](CCCNC(=N)N)NC(=O)CCCCCCCc1cccc(N2C(=O)C=CC2=O)c1)C(=O)N[C@@H](CC(=O)O)C(=O)N[C@@H](CCCNC(=N)N)C(=O)N[C@@H](C)C(=O)NCC(=O)NCC(=O)NCC(=O)NCC(=O)N[C@@H](CCCNC(=N)N)C(=O)NCC(=O)N[C@@H](CC(=O)O)C(=O)O [X31] (X66-RGADRAGGGGRGD-OH)
AUC(0-inf) [1]: 28600 ± 6960 ng·h/mL
MRT inf [1]: 51.3 ± 11.3 h
clearance [1]: 0.582 mL/min/kg
half-life [1]: 35.58 ± 0.31 h
Inhibition rate (%) ([2]; dose 0.05 μM): 40.18%
Inhibition rate (%) ([2]; dose 0.1 μM): 46.67%
Inhibition rate (%) ([2]; dose 0.2 μM): 55.21%
Cell migration number (Mean ± SD) ([2]; dose 0.05 μM): 641.17 ± 61.85
Cell migration number (Mean ± SD) ([2]; dose 0.1 μM): 571.62 ± 42.83
Cell migration number (Mean ± SD) ([2]; dose 0.2 μM): 480.05 ± 67.72
Swelling degree (mg) [3, 9]: 4.22 ± 0.51** mg
Inhibition rate (%) ([3]; dose 4 mg/kg): 32.26%
Swelling degree (mg) [3, 10]: 5.18 ± 0.71** mg
Inhibition rate (%) ([3]; dose 8 mg/kg): 49.28%
Joint swelling degree (mm) [4]: 0.78 ± 0.15 mm
Left and right paw swelling degree (mm) [4]: 0.77 ± 0.15 mm
Clinical score [4]: 8.75 ± 1.38
Swelling degree 1 h ([5]; 2.0 mg/kg once a day for 3 d): 0.23 ± 0.18 mg
Swelling degree 3 h ([5]; 2.0 mg/kg once a day for 3 d): 0.37 ± 0.12 mg
Swelling degree 5 h ([5]; 2.0 mg/kg once a day for 3 d): 0.38 ± 0.16 mg
Swelling degree 7 h ([5]; 2.0 mg/kg once a day for 3 d): 0.33 ± 0.11 mg
Swelling degree 1 h ([5]; 4.0 mg/kg once a day for 3 d): 0.22 ± 0.12 mg
Swelling degree 3 h ([5]; 4.0 mg/kg once a day for 3 d): 0.36 ± 0.16 mg
Swelling degree 5 h ([5]; 4.0 mg/kg once a day for 3 d): 0.38 ± 0.15 mg
Swelling degree 7 h ([5]; 4.0 mg/kg once a day for 3 d): 0.35 ± 0.14 mg
Inhibition rate (%) ([6]; dose 0.05 μM): 41.92%*
A570 nm-A630 nm ([6]; dose 0.05 μM): 0.7676 ± 0.04187
Inhibition rate (%) ([6]; dose 0.1 μM): 45.65%**
A570 nm-A630 nm ([6]; dose 0.1 μM): 0.7183 ± 0.03361
Inhibition rate (%) ([6]; dose 0.2 μM): 63.50%*
A570 nm-A630 nm ([6]; dose 0.2 μM): 0.4824 ± 0.04754
Inhibition rate (corneal neovascularization) [7]: 45.42%
MVD (corneal microvessel density) [7]: 36.70 ± 5.505
CNV Incidence (%) [8, 11]: 53.54%
Leakage Light spot number [8, 11]: 159
CNV Incidence (%) [8, 12]: 46.77%
Leakage Light spot number [8, 12]: 87
CNV Incidence (%) [8, 13]: 41.61%
Leakage Light spot number [8, 13]: 57
CNV Incidence (%) [8, 14]: 44.93%
Leakage Light spot number [8, 14]: 31

AUC(0-inf) [1]: 24600 ± 7530 ng·h/mL
MRT inf [1]: 44.1 ± 10.7 h
clearance [1]: 0.677 mL/min/kg
half-life [1]: 30.6 ± 0.32 h
SMILES: C[C@H](NC(=O)CNC(=O)[C@H](CCCNC(=N)N)NC(=O)Cc1cccc(N2C(=O)C=CC2=O)c1)C(=O)N[C@@H](CC(=O)O)C(=O)N[C@@H](CCCNC(=N)N)C(=O)N[C@@H](C)C(=O)NCC(=O)NCC(=O)NCC(=O)NCC(=O)N[C@@H](CCCNC(=N)N)C(=O)NCC(=O)N[C@@H](CC(=O)O)C(=O)O [X25] (X75-RGADRAGGGGRGD-OH)
Inhibition rate (%) ([2]; dose 0.05 μM): 48.06%
Inhibition rate (%) ([2]; dose 0.1 μM): 52.24%
Inhibition rate (%) ([2]; dose 0.2 μM): 58.00%
Cell migration number (Mean ± SD) ([2]; dose 0.05 μM): 556.73 ± 40.91
Cell migration number (Mean ± SD) ([2]; dose 0.1 μM): 511.9 ± 68.58
Cell migration number (Mean ± SD) ([2]; dose 0.2 μM): 450.13 ± 52.7
Swelling degree ([3]; dose 2 mg/kg, right minus left ear piece weight 2 h after xylene): 5.62 ± 0.64 mg
Inhibition rate (%) ([3]; dose 2 mg/kg): 9.79%
Swelling degree (mg) [3, 9]: 4.45 ± 0.20* mg
Inhibition rate (%) ([3]; dose 4 mg/kg): 28.57%
Swelling degree (mg) [3, 10]: 3.3 ± 0.06** mg
Inhibition rate (%) ([3]; dose 8 mg/kg): 47.03%
Joint swelling degree (mm) [4]: 0.71 ± 0.18 mm
Left and right paw swelling degree (mm) [4]: 0.74 ± 0.14 mm
Clinical score [4]: 9.21 ± 1.33
Swelling degree 1 h ([5]; 2.0 mg/kg once a day for 3 d): 0.29 ± 0.17 mg
Swelling degree 3 h ([5]; 2.0 mg/kg once a day for 3 d): 0.38 ± 0.12 mg
Swelling degree 5 h ([5]; 2.0 mg/kg once a day for 3 d): 0.46 ± 0.18 mg
Swelling degree 7 h ([5]; 2.0 mg/kg once a day for 3 d): 0.34 ± 0.13 mg
Swelling degree 1 h ([5]; 4.0 mg/kg once a day for 3 d): 0.27 ± 0.15 mg
Swelling degree 3 h ([5]; 4.0 mg/kg once a day for 3 d): 0.36 ± 0.19 mg
Swelling degree 5 h ([5]; 4.0 mg/kg once a day for 3 d): 0.44 ± 0.18 mg
Swelling degree 7 h ([5]; 4.0 mg/kg once a day for 3 d): 0.33 ± 0.12 mg
Inhibition rate (%) ([6]; dose 0.05 μM): 50.23%*
A570 nm-A630 nm ([6]; dose 0.05 μM): 0.6578 ± 0.08044
Inhibition rate (%) ([6]; dose 0.1 μM): 54.21%**
A570 nm-A630 nm ([6]; dose 0.1 μM): 0.6052 ± 0.09358
Inhibition rate (%) ([6]; dose 0.2 μM): 63.33%*
A570 nm-A630 nm ([6]; dose 0.2 μM): 0.4847 ± 0.06551
Inhibition rate (corneal neovascularization) [7]: 52.90%
MVD (corneal microvessel density) [7]: 31.67 ± 6.856
CNV Incidence (%) [8, 11]: 51.85%
Leakage Light spot number [8, 11]: 154
CNV Incidence (%) [8, 12]: 47.31%
Leakage Light spot number [8, 12]: 88
CNV Incidence (%) [8, 13]: 43.07%
Leakage Light spot number [8, 13]: 59
CNV Incidence (%) [8, 14]: 44.93%
Leakage Light spot number [8, 14]: 31
